Assay results published in ChEMBL document CHEMBL1152321, “Recent advances in the chemistry and biology of new generation taxoids” (J Nat Prod, 2009).

Key:
[1] = Cytotoxicity against P-glycoprotein deficient wild type human LCC-6 cells after 72 hrs; format: functional, cell-based; conditions: LCC-6, 72 h
[2] = Cytotoxicity against human LCC-6 cells expressing P-glycoprotein after 72 hrs; format: functional, cell-based; conditions: LCC-6, 72 h
[3] = Resistance factor, ratio of IC50 for human LCC-6 cells expressing P-glycoprotein to IC50 for P-glycoprotein deficient wild type human LCC-6 cells; format: functional; design: reference not given here
MCF7 [4] = assay: Cytotoxicity against P-glycoprotein deficient wild type human MCF7 cells after 72 hrs; format: functional, cell-based; conditions: MCF7, 72 h
MCF7 [5] = assay: Cytotoxicity against human MCF7 cells expressing P-glycoprotein after 72 hrs; format: functional, cell-based; conditions: MCF7, 72 h
MCF7 [6] = assay: Resistance factor, ratio of IC50 for human MCF7 cells expressing P-glycoprotein to IC50 for P-glycoprotein deficient wild type human MCF7 cells; format: functional
NCI-H460 = assay: Cytotoxicity against human H460 cells after 72 hrs; format: functional, cell-based; conditions: NCI-H460, 72 h
HT-29 = assay: Cytotoxicity against human HT-29 cells after 72 hrs; format: functional, cell-based; conditions: HT-29, 72 h

Structure (SMILES) | IC50 [1] [nM] | IC50 [2] [nM] | Ratio [3] | IC50 (MCF7 [4]) [nM] | IC50 (MCF7 [5]) [nM] | Ratio (MCF7 [6]) | IC50 (NCI-H460) [nM] | IC50 (HT-29) [nM]
COC(=O)O[C@H]1C(=O)[C@@]2(C)[C@H]([C@H](OC(=O)c3cccc(Cl)c3)[C@]3(O)C[C@H](OC(=O)[C@H](O)[C@@H](NC(=O)OC(C)(C)C)C(F)F)C(C)=C1C3(C)C)[C@]1(OC(C)=O)CO[C@@H]1C[C@@H]2O | 0.13 | 1.82 | 14 | 0.26 | 2.08 | 8 | 0.25 | 0.29
COc1cccc(C(=O)O[C@H]2[C@@H]3[C@]4(OC(C)=O)CO[C@@H]4C[C@H](O)[C@@]3(C)C(=O)[C@H](OC(C)=O)C3=C(C)[C@@H](OC(=O)[C@H](O)[C@@H](NC(=O)OC(C)(C)C)C(F)F)C[C@]2(O)C3(C)C)c1 | 0.26 | 5.57 | 21 | 0.34 | 4.16 | 12 | 0.38 | 0.52
CCC(=O)O[C@H]1C(=O)[C@@]2(C)[C@H]([C@H](OC(=O)c3cccc(F)c3)[C@]3(O)C[C@H](OC(=O)[C@H](O)[C@@H](NC(=O)OC(C)(C)C)C(F)(F)F)C(C)=C1C3(C)C)[C@]1(OC(C)=O)CO[C@@H]1C[C@@H]2O | 0.82 | 4.27 | 5.2 | 0.68 | 3.78 | 5.6 | 0.59 | 1.15
CC(=O)O[C@@]12CO[C@@H]1C[C@H](O)[C@@]1(C)C(=O)[C@H](OC(=O)N(C)C)C3=C(C)[C@@H](OC(=O)[C@H](O)[C@@H](NC(=O)OC(C)(C)C)C(F)F)C[C@@](O)([C@@H](OC(=O)c4cccc(F)c4)[C@H]21)C3(C)C | 0.69 | 10.6 | 15 | 0.52 | 8.13 | 16 | 0.2 | 0.35
COc1cccc(C(=O)O[C@H]2[C@@H]3[C@]4(OC(C)=O)CO[C@@H]4C[C@H](O)[C@@]3(C)C(=O)[C@H](OC(C)=O)C3=C(C)[C@@H](OC(=O)[C@H](O)[C@@H](NC(=O)OC(C)(C)C)C(F)(F)F)C[C@]2(O)C3(C)C)c1 | 0.33 | 3.99 | 12 | 0.32 | 8.8 | 28 | 0.38 | 0.69
CCC(=O)O[C@H]1C(=O)[C@@]2(C)[C@H]([C@H](OC(=O)c3cccc(F)c3)[C@]3(O)C[C@H](OC(=O)[C@H](O)[C@@H](NC(=O)OC(C)(C)C)C(F)F)C(C)=C1C3(C)C)[C@]1(OC(C)=O)CO[C@@H]1C[C@@H]2O | 0.88 | 4.63 | 3.5 | 0.53 | 7.24 | 14 | 0.41 | 0.86
CCC(=O)O[C@H]1C(=O)[C@@]2(C)[C@H]([C@H](OC(=O)c3cccc(OC)c3)[C@]3(O)C[C@H](OC(=O)[C@H](O)[C@@H](NC(=O)OC(C)(C)C)C(F)(F)F)C(C)=C1C3(C)C)[C@]1(OC(C)=O)CO[C@@H]1C[C@@H]2O | 0.45 | 4.24 | 9 | 0.19 | 2.16 | 11 | 0.41 | 0.54
COC(=O)O[C@H]1C(=O)[C@@]2(C)[C@H]([C@H](OC(=O)c3cccc(Cl)c3)[C@]3(O)C[C@H](OC(=O)[C@H](O)[C@@H](NC(=O)OC(C)(C)C)C(F)(F)F)C(C)=C1C3(C)C)[C@]1(OC(C)=O)CO[C@@H]1C[C@@H]2O | 0.29 | 5.08 | 18 | 0.65 | 4.72 | 7.3 | 0.43 | 0.68
COC(=O)O[C@H]1C(=O)[C@@]2(C)[C@H]([C@H](OC(=O)c3cccc(N=[N+]=[N-])c3)[C@]3(O)C[C@H](OC(=O)[C@H](O)[C@@H](NC(=O)OC(C)(C)C)C(F)F)C(C)=C1C3(C)C)[C@]1(OC(C)=O)CO[C@@H]1C[C@@H]2O | 0.26 | 2.06 | 7.9 | 1.69 | 2.56 | 1.5 | 0.23 | 0.36
CCC(=O)O[C@H]1C(=O)[C@@]2(C)[C@H]([C@H](OC(=O)c3cccc(N=[N+]=[N-])c3)[C@]3(O)C[C@H](OC(=O)[C@H](O)[C@@H](NC(=O)OC(C)(C)C)C(F)F)C(C)=C1C3(C)C)[C@]1(OC(C)=O)CO[C@@H]1C[C@@H]2O | 0.39 | 1.15 | 2.9 | 0.32 | 0.96 | 3 | 0.27 | 0.37
CC(=O)O[C@@]12CO[C@@H]1C[C@H](O)[C@@]1(C)C(=O)[C@H](OC(=O)N(C)C)C3=C(C)[C@@H](OC(=O)[C@H](O)[C@@H](NC(=O)OC(C)(C)C)C(F)F)C[C@@](O)([C@@H](OC(=O)c4cccc(Cl)c4)[C@H]21)C3(C)C | 0.21 | 3.87 | 18 | 0.31 | 2.96 | 9.5 | 0.36 | 0.58
CC(=O)O[C@H]1C(=O)[C@@]2(C)[C@H]([C@H](OC(=O)c3cccc(N=[N+]=[N-])c3)[C@]3(O)C[C@H](OC(=O)[C@H](O)[C@@H](NC(=O)OC(C)(C)C)C(F)F)C(C)=C1C3(C)C)[C@]1(OC(C)=O)CO[C@@H]1C[C@@H]2O | 0.22 | 1.57 | 7.1 | 0.32 | 1.68 | 5.3 | 0.48 | 0.57
CC(=O)O[C@@]12CO[C@@H]1C[C@H](O)[C@@]1(C)C(=O)[C@H](OC(=O)N(C)C)C3=C(C)[C@@H](OC(=O)[C@H](O)[C@@H](NC(=O)OC(C)(C)C)C(F)(F)F)C[C@@](O)([C@@H](OC(=O)c4cccc(Cl)c4)[C@H]21)C3(C)C | 0.27 | 2.55 | 9.4 | 0.12 | 1.02 | 8.5 | 0.42 | 0.45
CC(=O)O[C@H]1C(=O)[C@@]2(C)[C@H]([C@H](OC(=O)c3cccc(Cl)c3)[C@]3(O)C[C@H](OC(=O)[C@H](O)[C@@H](NC(=O)OC(C)(C)C)C(F)F)C(C)=C1C3(C)C)[C@]1(OC(C)=O)CO[C@@H]1C[C@@H]2O | 0.31 | 5.8 | 19 | 0.4 | 6.48 | 16 | 0.49 | 1.94
CC(=O)O[C@H]1C(=O)[C@@]2(C)[C@H]([C@H](OC(=O)c3cccc(F)c3)[C@]3(O)C[C@H](OC(=O)[C@H](O)[C@@H](NC(=O)OC(C)(C)C)C(F)F)C(C)=C1C3(C)C)[C@]1(OC(C)=O)CO[C@@H]1C[C@@H]2O | 0.52 | 10 | 19 | 0.44 | 5.33 | 13 | 0.2 | 0.35
CCC(=O)O[C@H]1C(=O)[C@@]2(C)[C@H]([C@H](OC(=O)c3cccc(OC)c3)[C@]3(O)C[C@H](OC(=O)[C@H](O)[C@@H](NC(=O)OC(C)(C)C)C(F)F)C(C)=C1C3(C)C)[C@]1(OC(C)=O)CO[C@@H]1C[C@@H]2O | 0.69 |  |  | 1.14 | 4.05 |  | 0.4 | 0.59
